The data set can be described thus: gradient 5% acetonitrile 3 min, to 50% in 2 min, to 85% in 15 min, held 3 min, 100 µL/min. The note with it: column: Zorbax Extend-C18 2.1 x 50 mm; eluents: water / acetonitrile, 0.1% formic acid. The method in brief:
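In both positive and negative ionization mode, a quadrupole time-of-flight mass spectrometer coupled to HPLC analyzed pure standards run in mixtures of ~100 molecules. The Zorbax Extend-C18 column (2.1 × 50 mm, 1.8 μm) was operated at 100 μL/min with water and acetonitrile, each containing 0.1% formic acid. The dead volume was 40 μL and the dwell volume 900 μL. Retention time came from adduct peaks that were computationally picked and individually inspected by hand.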
`CC(C)CN1CCCCc2cc(C(N)=O)sc21` came in with an RP-LC retention time of 829 s.

For the compound `O=C(Nc1ccc(C2(C(=O)N3CCN(c4ccccc4F)CC3)CCC2)cc1)C1CC1`, the RP-LC retention time worked out at 944 s.

With `COc1ccc(CNC(=O)c2ccc3c(c2)nc2n3CCN(c3ccccc3)C2=O)cc1`, the RP-LC retention time stood at 732 s.

Regarding `Cc1cc(OCC(=O)Nc2ccc(F)cc2)nc(N2CCN(c3ccccc3)CC2)n1`, the RP-LC retention time turned out to be 823 s.

For the compound `Cc1nn(-c2nc(-c3ccc(F)cc3)cs2)c(C)c1CC(=O)Nc1ccc(F)cc1`, the RP-LC retention time came out at 1150 s.

The compound `O=C(NCCSc1ncc(-c2ccccc2)[nH]1)NCc1cccs1` came in with an RP-LC retention time of 596 s.

`CN1C(=O)c2ccccc2Oc2ccc(C(=O)NC3CCCCC3)cc21` came in with an RP-LC retention time of 891 s.

With `CCc1nn2c(CNS(=O)(=O)c3cc(C)ccc3C)c(-c3ccccc3)nc2s1`, the RP-LC retention time was 986 s.

Regarding `CCCCCOc1ccc(C(=O)N(Cc2ccc(C)o2)C2CCS(=O)(=O)C2)cc1` (stereo not given), the RP-LC retention time was determined as 1110 s.

Take `Cn1cc(C(=O)NCc2cccc(Cl)c2)c(S(=O)(=O)N2CCSCC2)n1`: the RP-LC retention time worked out at 892 s.

`Cc1nnc(-c2nnc(NCc3cccc(F)c3)c3ccccc23)o1`: the RP-LC retention time worked out at 826 s.

Regarding `CCOc1ccccc1CNC(=O)c1cc(NC(C)=O)cc2nc(C)ccc12`, the RP-LC retention time worked out at 653 s.

In turn, `CCN(C(=O)Cn1ncc2c(c1=O)N(C)C(=O)CS2)c1cccc(C)c1` displayed an RP-LC retention time of 756 s.

On to `COc1ccc(CCNC(=O)CCn2c(=O)sc3ccccc32)cc1OC`, for which the RP-LC retention time is 698 s.

Turning to `CC(C)(C)c1ccc(-c2noc(Cn3c(=O)n(CCc4ccccc4)c(=O)c4sccc43)n2)cc1`, the RP-LC retention time was determined as 1360 s.

Compound `CC(NC(=O)C1CCN(CCc2cn(C)c3ncccc23)CC1)c1ccccc1` (stereo not given) displayed an RP-LC retention time of 644 s.

In turn, `COc1cc(=O)oc(/C=C/C=C/C=C/C(C)=C/C2(C)OC(C)C(C)(O)C2O)c1C` (stereo not given) showed an RP-LC retention time of 846 s.

The compound `Cc1cccc2nnc(N3CCC(C(=O)Nc4ccccc4F)CC3)n12` yielded an RP-LC retention time of 677 s.

`COc1cc(NS(=O)(=O)c2cc3n(c2)CCCNC3=O)cc(OC)c1` returned an RP-LC retention time of 639 s.

The compound `COc1ccc(-c2nc3ccccn3c2Nc2ccccc2C)cc1` displayed an RP-LC retention time of 721 s.

Regarding `Cc1oc(-c2[nH]ncc2C(=O)N2CCOCC2)cc1S(=O)(=O)Nc1cccc(F)c1`, the RP-LC retention time worked out at 669 s.

In the case of `CN1C(=O)COc2cc(-c3noc(C(=O)NCCCN4CCCC4)n3)ccc21`, the RP-LC retention time was found to be 604 s.

In turn, `O=S(=O)(Nc1ccc(F)c(F)c1)c1c[nH]c2ncccc12` registered an RP-LC retention time of 739 s.

The compound `Cn1cc(CCN2CCC(C(=O)NCc3cccs3)CC2)c2cccnc21` registered an RP-LC retention time of 595 s.

For `O=C(Nc1cnc(-c2cccnc2)nc1)C1CCCCC1`, the RP-LC retention time was found to be 681 s.

In turn, `CCc1ccccc1NC(=O)C1CCN(S(=O)(=O)c2c(C)nn(-c3ccccc3)c2C)CC1` yielded an RP-LC retention time of 985 s.

Regarding `CCc1noc(C2CCCCN2CC(=O)NCCc2cccs2)n1` (stereo not given), the RP-LC retention time was 794 s.

The compound `O=C(COc1ncccn1)N1CCN(c2ncccn2)CC1` came in with an RP-LC retention time of 579 s.

Take `O=C1N(c2ccc(F)cc2)c2ncccc2S(=O)(=O)N1Cc1ccccc1`: the RP-LC retention time amounted to 1020 s.

Regarding `COC(=O)c1cccc(Nc2c(-c3ccc(N(C)C)cc3)nc3cnccn23)c1`, the RP-LC retention time came to 776 s.

Consider `O=C(NCCCc1ccccc1)C1CCN(c2nnc3ccc(Cl)cn23)CC1`, for which the RP-LC retention time is 760 s.

`Cc1ccc(C)c(N2C(=O)CN(S(C)(=O)=O)CC2(C)C(=O)NCc2ccc(Cl)cc2)c1` (stereo not given) came in with an RP-LC retention time of 889 s.

As for `Cc1cccc(NC(=O)C2CCc3nc(N4CCOCC4)ncc3C2)c1` (stereo not given), the RP-LC retention time came out at 786 s.

Take `CCC(=O)N1CCc2sc(C(=O)N3CCN(c4cccc(Cl)c4)CC3)cc2C1`: the RP-LC retention time came out at 900 s.

In turn, `O=S(=O)(c1cccs1)N1CCCCC1c1nncn1CC1CC1` (stereo not given) returned an RP-LC retention time of 752 s.

Turning to `COc1ccc(-c2noc(CN3C(=O)COc4cc(Cl)ccc43)n2)cc1OC`, the RP-LC retention time is 971 s.

For `CCN1CCCn2cc(S(=O)(=O)Nc3cccc(Cl)c3)cc2C1=O`, the RP-LC retention time stood at 770 s.

Turning to `COc1ccc(Cl)cc1NC(=O)CSc1cc(N2CCN(c3ccccc3OC)CC2)ncn1`, the RP-LC retention time is 1240 s.

The compound `CCN1C(=O)c2cccnc2Sc2cc(NC(=O)C(C)C)ccc21` gave an RP-LC retention time of 711 s.

`O=C(Cn1cccc1-c1nc(-c2ccc(F)cc2)no1)Nc1ccc2c(c1)OCCO2`: the RP-LC retention time turned out to be 944 s.

Consider `Cc1ccc(-c2nc(-c3ccc(S(=O)(=O)N4CCC(C(=O)N5CCCC5)CC4)cc3)no2)cc1C`, for which the RP-LC retention time amounted to 1180 s.

On to `CC(C)c1ccc(NC(=O)CC2COc3ccccc3NC2=O)cc1` (stereo not given), for which the RP-LC retention time is 872 s.

For `CC(=O)c1ccc(Nc2c(C(=O)N3CCCC3)cnc3nc(C)ccc23)cc1`, the RP-LC retention time was 584 s.

In turn, `COc1ccc(N2CC(c3nc(-c4cccc(Cl)c4)no3)CC2=O)cc1OC` (stereo not given) showed an RP-LC retention time of 951 s.

For `O=C(Cc1cccs1)N1CCCC1c1nc(-c2ccc(F)cc2F)no1` (stereo not given), the RP-LC retention time stood at 935 s.

`O=C(O)CC1CCCN(c2cnn(CC3CC3)c(=O)c2)C1` (stereo not given) registered an RP-LC retention time of 657 s.

Regarding `COc1cccc(NC(=O)c2cc3c(s2)CN(C2CC2)C3)c1`, the RP-LC retention time came to 760 s.

As to `COCc1noc([C@@H]2CC(F)(F)CN2C(=O)C2CCC2)n1`, the RP-LC retention time worked out at 746 s.

As for `COc1ccc(-c2cc3n(n2)CCCN(S(=O)(=O)c2ccc4c(c2)CCC4)C3)cc1`, the RP-LC retention time stood at 1080 s.

Take `CCN1CCN(c2cc(C)nc3nc(-c4ccc(C(C)(C)C)cc4)nn23)CC1`: the RP-LC retention time worked out at 677 s.

`CSc1ccc(CNC(=O)Cn2c(=O)cc(-c3nc(C4CC4)no3)c3ccccc32)cc1`: the RP-LC retention time came to 962 s.

As to `CC(C)(C)OC(=O)COC(=O)c1cn(-c2ccc(F)cc2)c(=O)c2ccccc12`, the RP-LC retention time is 1140 s.

For `CC(=O)C1=C(C)N(Cc2ccccc2)C(=O)C1(NC(=O)C1CCCCC1)C(F)(F)F` (stereo not given), the RP-LC retention time amounted to 1020 s.

With `O=C1/C(=C/c2ccc(Cl)c(Cl)c2)CN(C(=O)CCN2CCOCC2)C/C1=C\c1ccc(Cl)c(Cl)c1`, the RP-LC retention time stood at 881 s.

For `CC#CCn1c(N2CCC[C@@H](N)C2)nc2c1c(=O)n(Cc1nc(C)c3ccccc3n1)c(=O)n2C`, the RP-LC retention time worked out at 670 s.

As to `CNC(=O)CCC(=O)N1c2ccccc2NC2=C(C(=O)CC(C)(C)C2)C1c1ccccc1` (stereo not given), the RP-LC retention time was 686 s.

Regarding `O=C(COc1ccc(F)cc1)NCC1(c2cccs2)CC1`, the RP-LC retention time is 882 s.

In turn, `Cc1nn2c(CNC(=O)C3CCC3)c(-c3ccccc3)nc2s1` came in with an RP-LC retention time of 743 s.

In the case of `Cc1ccc(NC(=O)c2cc(C3CC3)n3nccc3n2)c(F)c1`, the RP-LC retention time is 1150 s.

Compound `Cc1ccc(-c2cc(N3CCN(C(=O)c4ccccc4Br)CC3)ncn2)cc1` displayed an RP-LC retention time of 696 s.

For the compound `COC(=O)C1=CN(c2ccc(OC)cc2)c2ccc(F)cc2S1(=O)=O`, the RP-LC retention time was determined as 804 s.

In turn, `CCOCCCNC(=O)c1ccc2c(c1)NC(=O)C1CCCCN21` (stereo not given) gave an RP-LC retention time of 686 s.

`CCN1C(=O)COc2ccc(-c3csc(NC(=O)c4ccc(OC)c(OC)c4)n3)cc21`: the RP-LC retention time amounted to 943 s.

With `O=C1CCN(C(=O)C2CCN(C(=O)c3ccco3)CC2)CCCCCCN1`, the RP-LC retention time is 623 s.

The compound `Cc1ccc(-n2ccnc2SCc2nc(-c3cccc(C)c3)no2)cc1` returned an RP-LC retention time of 1020 s.

`O=c1ccc(-c2ccc(F)cc2)nn1CCc1nc(-c2ccccc2Cl)no1` displayed an RP-LC retention time of 1020 s.

`COc1ccc(NC(=O)c2noc3c2CC(C)CC3)c(OC)c1` (stereo not given) gave an RP-LC retention time of 1170 s.

`O=C(Cc1cccs1)NCCOc1ccc(F)cc1` displayed an RP-LC retention time of 766 s.

For `Cc1nc(-c2csc(S(=O)(=O)N3CCC(C(=O)N4CCCC4)CC3)c2)no1`, the RP-LC retention time came to 760 s.

The compound `CCCn1cc(S(=O)(=O)NCc2ccccc2Cl)c2cccnc21` displayed an RP-LC retention time of 912 s.

Compound `CCC(C(=O)NCCN1CCCC1)n1c2ccccc2c2cnn(C)c(=O)c21` (stereo not given) displayed an RP-LC retention time of 632 s.

The compound `CCN1CCN(C(=O)CSc2nccnc2Sc2ccccc2)CC1` gave an RP-LC retention time of 640 s.

`CCOc1ccc(S(=O)(=O)N2CCC3(CC2)CN(C)CC3c2nnc(CC)o2)cc1` (stereo not given) yielded an RP-LC retention time of 638 s.

As for `O=C(NCc1ccccc1)Nc1c(-c2ccccc2)nc2ccccn12`, the RP-LC retention time is 626 s.

Consider `CN1C(=O)c2cc(C(=O)N3CCCCCC3)nn2CC1(C)C(=O)NC1CCCCCC1` (stereo not given), for which the RP-LC retention time came to 802 s.

As to `O=C(COc1ccc(F)cc1)N1CCN(Cc2noc3ccccc23)CC1`, the RP-LC retention time was 726 s.

`N#Cc1cccc(NC(=O)Cc2csc3nc(-c4ccccc4)cn23)c1`: the RP-LC retention time stood at 782 s.

The compound `COc1ccccc1-c1nc(Cn2nnc(-c3nc(-c4ccc5c(c4)OCO5)no3)c2C)c(C)o1` came in with an RP-LC retention time of 700 s.

`COc1ccc(Cl)cc1NC(=O)c1c(C)oc2c1C1=NCCN1C=N2` came in with an RP-LC retention time of 674 s.

The compound `CCOc1ccccc1NC(=O)c1cnn(-c2ccc(Br)cc2)c1` came in with an RP-LC retention time of 1120 s.
